In US20260078341A1, “TREATMENT OF CANCER USING CHIMERIC ANTIGEN RECEPTOR” (Novartis AG, priority 2014, published 2026):
Several values for one entry are separate records, joined by “and”; a condition that tells them apart may be missing. Equal values may be shown once. Read-outs that look alike come from different tables or passages of the source. Marks after values point to notes of the source that are not given here.

Assays:
Assay type in all cases: in vivo, human
[1] = tested on: influenza vaccine strains and heterologous influenza strains; assay: Influenza geometric mean titers 4 weeks after vaccination in RAD001 cohorts; conditions: relative to placebo
Description: FIGS. 41A and 41B. […] In FIG. 41A, the increase above baseline in influenza geometric mean titers to each of the 3 influenza vaccine strains (H1N1 A/California/07/2009, H3N2 A/Victoria/210/2009, B/Brisbane/60/2008) relative to the increase in the placebo cohort 4 weeks after vaccination is shown for each of the RAD001 dosing cohorts in the intention to treat population. […] FIG. 41B is a graph of the same data as in FIG. 41A for the subset of subjects with baseline influenza titers <=1:40.
The increase above baseline in influenza geometric mean titers to 2 heterologous influenza strains (A/H1N1 strain A/New Jersey/8/76 and A/H3N2 strain A/Victoria/361/11) not contained in the influenza vaccine relative to the increase in the placebo cohort 4 weeks after vaccination is shown for each of the RAD001 dosing cohorts in the intention to treat population. * indicates increase in titer relative to placebo exceeds 1 with a posterior probability of at least 80%.

[2] = tested on: A/H3N2 strain A/Victoria/361/11; assay: Seroconversion to heterologous A/H3N2 strain; conditions: for Percentage of subjects who seroconvert to heterologous strain A/H3N2 A/Victoria/361/11: 4 weeks after seasonal influenza vaccination
[3] = tested on: A/H1N1/California/07/2009 influenza; assay: Anti-A/H1N1/California/07/2009 influenza IgG and IgM levels in serum; conditions: baseline to 4 weeks post vaccination, vs placebo
Protocol: FIGS. 44A and 44B. Graphic representations of IgG and IgM levels before and after influenza vaccination. Levels of anti-A/H1N1/California/07/2009 influenza IgG and IgM were measured in serum obtained from subjects before and 4 weeks post influenza vaccination.

[4] = tested on: PD-1 positive CD4 and CD8 T cells
[5] = tested on: influenza vaccine strains; assay: Primary endpoint: HI GMT ratio relative to placebo in at least 2 of 3 influenza vaccine strains; conditions: ITT population
Protocol: (§1) The ability of RAD001 to improve immune function in elderly volunteers was evaluated by measuring the serologic response to the 2012 seasonal influenza vaccine. The hemagglutination inhibition (HI) geometric mean titers (GMT) to each of the 3 influenza vaccine strains at baseline and 4 weeks after influenza vaccination are provided in Table 6. The primary analysis variable was the HI GMT ratio (4 weeks post vaccination/baseline). […] This endpoint was chosen because a 1.2-fold increase in the influenza GMT ratio induced by the MF-59 vaccine adjuvant was associated with a decrease in influenza illness (Iob, A et al. (2005) Epidemiol Infect 133:687-693).
Elderly volunteers >=65 years of age were randomized to one of the 3 RAD001 treatment groups (50 subjects per arm) or placebo (20 subjects per arm). Subjects were treated with study drug for 6 weeks, given a 2 week break, and then received influenza (Aggrippal, Novartis) and pneumoccal (Pneumovax 23, Merck), vaccinations. Response to influenza vaccination was assessed by measuring the geometric mean titers (GMTs) by hemagglutination inhibition assay to the 3 influenza strains (H1N1, H3N2 and B influenza subtypes) in the influenza vaccine 4 weeks after vaccination. […] Antibody titers to 7 of the serotypes were measured in our subjects.

[6] = tested on: H1N1 A/California/07/2009; assay: Hemagglutination inhibition titers after influenza vaccination, A/H1N1 vaccine strain; conditions: for HI GMT ratio (CV %) A/H1N1: GMT at week 4 post vaccination/GMT at baseline
Protocol: The trial was observer-blind because the placebo in the RAD001 0.5 mg daily and 20 mg weekly cohorts differed slightly from the RAD001 tablets in those cohorts. […] The treatment duration for all cohorts was 6 weeks during which time subjects underwent safety evaluations in the clinic every 2 weeks. After subjects had been dosed for 4 weeks, RAD001 steady state levels were measured pre-dose and at one hour post dose. After completing the 6 week course of study drug, subjects were given a 2 week drug free break to reverse any possible RAD001-induced immunosuppression, and then were given a 2012 seasonal influenza vaccination (Agrippal®, Novartis Vaccines and Diagnostics, Siena, Italy) containing the strains H1N1 A/California/07/2009, H3N2 A/Victoria/210/2009, B/Brisbane/60/2008. Four weeks after influenza vaccination, subjects had serum collected for influenza titer measurements. Antibody titers to the 3 influenza vaccine strains as well as to 2 heterologous strains (A/H1N1 strain A/New Jersy/8/76 and A/H3N2 strain A/Victoria/361/11) were measured by standard hemagglutination inhibition assay (Kendal, A P et al. (1982) Concepts and procedures for laboratory-based influenza surveillance. Atlanta: Centers for Disease Control and Prevention B17-B35). Levels of IgG and IgM specific for the A/H1N1/California/07/2009 were measured in serum samples taken before and 4 weeks after influenza vaccination as described previously (Spensieri, F. et al. (2013) Proc. Natl. Acad. Sci. USA 110:14330-14335). Results were expressed as fluorescence intensity.
The primary analysis of geometric mean titer ratios was done using a normal Bayesian regression model with non-informative priors. This model was fitted to each antibody titer on the log scale. The primary outcome in each model was the Day 84 measurement. The Day 63 measurement was included in the outcome vector. The model fitted using SAS 9.2 proc mixed with the prior statement. The covariance structure of the matrix was considered as unstructured (option type=UN). A flat prior was used. For the secondary analysis of seroconversion rates, logistic regression was used.
as §1
Rates of seroconversion 4 weeks after influenza vaccination were also evaluated. Seroconversion was defined as the change from a negative pre-vaccination titer (i.e., HI titer <1:10) to post-vaccination HI titer ≥1:40 or at least 4-fold increase from a non-negative (>1:10) pre-vaccination HI titer.

With `CO[C@H]1C[C@@H]2CC[C@@H](C)[C@@](O)(O2)C(=O)C(=O)N2CCCC[C@H]2C(=O)O[C@H]([C@H](C)C[C@@H]2CC[C@@H](OCCO)[C@H](OC)C2)CC(=O)[C@H](C)/C=C(\C)[C@@H](O)[C@@H](OC)C(=O)[C@H](C)C[C@H](C)/C=C/C=C/C=C/1C` [RAD001, (1R,9S,12S,15R,16E,18R,19R,21R,23S,24E,26E,28E,30S,32S,35R)-1,18-dihydroxy-12-{(1R)-2-[(1S,3R,4R)-4-(2-hydroxyethoxy)-3-methoxycyclohexyl]-1-methylethyl}-19,30-dimethoxy-15,17,21,23,29,35-hexamethyl-11,36-dioxa-4-azatricyclo[30.3.1.0^4,9]hexatriaconta-16,24,26,28-tetraene-2,3,10,14,20-pentaone] the “titers to heterologous influenza strains” value [1] was “increase in titers to heterologous influenza strains as compared to placebo”, the “titers to influenza vaccine strains” value [1] was “increase in titers to influenza vaccine strains as compared to placebo” and the “Percentage of subjects who seroconvert to heterologous strain A/H3N2 A/Victoria/361/11” value ([2]; RAD001 0.5 mg daily) was 38%. For the same compound, the “Percentage of subjects who seroconvert to heterologous strain A/H3N2 A/Victoria/361/11” value ([2]; RAD001 5 mg weekly) was 39%*, the “Percentage of subjects who seroconvert to heterologous strain A/H3N2 A/Victoria/361/11” value ([2]; RAD001 20 mg weekly) was 40%* and the “H3N2 heterologous strain seroconversion rate” value ([2]; pooled RAD001 cohorts, versus 20% placebo, p=0.007) was 39%. For the same compound, the “change from baseline in anti-H1N1 influenza IgG and IgM levels” value [3] was “No significant difference”, the “decrease in PD-1 positive CD8 T cells compared to placebo cohort” value ([4]; in vivo) was 37.4% and 41.4% and the “decrease in PD-1 positive CD4 T cells compared to placebo cohort” value ([4]; week 6, pooled RAD cohort (n=84), p=0.03) was 30.2%. The “decrease in PD-1 positive CD4 T cells compared to placebo cohort” value ([4]; week 12, pooled RAD cohort, p=0.05) was 32.7%, the “primary endpoint of the study (HI GMT ratio)” value ([5]; 0.5 mg daily or 5 mg weekly) was “met the GMT primary endpoint” and the “primary endpoint of the study (HI GMT ratio)” value ([5]; 20 mg weekly) was “but not higher dose (20 mg weekly) cohort met the primary endpoint”. The “HI GMT (CV %) A/H1N1” value ([6]; Baseline (2 weeks prior to influenza vaccination), RAD001 0.5 mg daily) was 102.8 (186.9), the “HI GMT (CV %) A/H1N1” value ([6]; Baseline (2 weeks prior to influenza vaccination), RAD001 5 mg weekly) was 84.2 (236.4) and the “HI GMT (CV %) A/H1N1” value ([6]; Baseline (2 weeks prior to influenza vaccination), RAD001 20 mg weekly) was 90.1 (188.4). The “HI GMT ratio (CV %) A/H1N1” value ([6]; RAD001 0.5 mg daily) was 2.6 (302.5), the “HI GMT ratio (CV %) A/H1N1” value ([6]; RAD001 5 mg weekly) was 2.5 (214.3) and the “HI GMT ratio (CV %) A/H1N1” value ([6]; RAD001 20 mg weekly) was 1.8 (201.5). For the same compound, the “Percent of subjects with seroconversion to influenza 4 weeks after vaccination, H1N1” value (from here on “Percent of subjects with seroconversion”) ([6]; Intention to Treat Population, 0.5 mg) was 27%, the “Percent of subjects with seroconversion” value ([6]; Intention to Treat Population, 5 mg) was 27% and the “Percent of subjects with seroconversion” value ([6]; Intention to Treat Population, 20 mg) was 17%. The “Percent of subjects with seroconversion” value ([6]; Subjects with Baseline Titers <=40, 0.5 mg) was 42%, the “Percent of subjects with seroconversion” value ([6]; Subjects with Baseline Titers <=40, 5 mg) was 45% and the “Percent of subjects with seroconversion” value ([6]; Subjects with Baseline Titers <=40, 20 mg) was 36%. The “HI GMT (CV %) A/H1N1” value ([6]; Week 4 after influenza vaccination, RAD001 0.5 mg daily) was 190.2 (236.9), the “HI GMT (CV %) A/H1N1” value ([6]; Week 4 after influenza vaccination, RAD001 5 mg weekly) was 198.73(195.6) and the “HI GMT (CV %) A/H1N1” value ([6]; Week 4 after influenza vaccination, RAD001 20 mg weekly) was 129.7 (175.9).
